Columns and labels:
[1] = target: CYP2C9 (Homo sapiens, UniProt P11712); experiment: CYP inhibition in human liver microsomes
[2] = Stability in simulated intestinal fluid (SIF); type: in vitro ADME; details: 10 μM, SIF pH 6.8, over time (to 120 min)
Procedure: Samples (100 μl) were drawn at 0, 15, 30 and 60 min from SGF reaction-vials and at 0, 30, 60 and 120 min from SIF reaction-vials, quenched with acetonitrile, vortex-mixed, and centrifuged before supernatant analysis by LC-MS/MS analysis. […] For PK studies, a sparse sampling design with 3 mice per time point was used to collect blood samples at 5, 10, 15, 30 min and 1, 2, 3, 4, 5 and 6 h in K2EDTA-coated tubes. The pharmacokinetic parameters (AUClast, Cmax, CL and Vss) were calculated using non-compartmental analysis tool of Phoenix WinNonlin software (version 6.3).
Given the extreme pH and various digestive enzymes, the GI tract presents a harsh environment to any ingested xenobiotic. Thus, many potential drug candidates are degraded in the GI tract, explaining their decreased bioavailability or inability to reach the target at effective concentrations. Simulated gastric fluid (SGF; pH 1.2) and simulated intestinal fluid (SIF; pH 6.8) closely mimic the GI tract environment and are amenable in vitro systems to evaluate degradation of a compound in GI tract (US Pharmacopoia).
Simulated gastric fluid was prepared as per U.S. Pharmacopeia (USP) methods. Sodium chloride (2 g) and pepsin (3.2 g, from porcine stomach mucosa) were dissolved in 7.0 ml hydrochloric acid and Milli-Q water to make up the volume to 1000 ml and the pH was adjusted to 1.2. […]

[3] = system: PC-3 cells; experiment: Clonogenic cell survival (colony) assay; type: cell-based, human; details: 2 mg/ml, 48 h treatment, colonies after 10 days
Procedure: Next, a clonogenic cell survival assay was performed to assess the reproductive capacity of cells upon drug removal.
After 48 h, drug containing medium was replaced by medium containing MTT (tetrazolium bromide) at a concentration of 0.5 mg/ml. The yellow tetrazolium salt is reduced to insoluble purple formazan by viable cells. After 4 h of incubation in dark, formazan crystals produced by viable cells were dissolved by 200 μl DMSO and the amount of formazan crystals formed was quantified by recording the absorbance at 570 nm using multi-well plate reader. […] After 10 days, colonies were fixed with 4% formaldehyde, stained with crystal violet and counted.

[4] = target: CYP1A2 (Homo sapiens, UniProt P05177); experiment: CYP inhibition in human liver microsomes
Sequence of CYP1A2 (P05177 whole entry): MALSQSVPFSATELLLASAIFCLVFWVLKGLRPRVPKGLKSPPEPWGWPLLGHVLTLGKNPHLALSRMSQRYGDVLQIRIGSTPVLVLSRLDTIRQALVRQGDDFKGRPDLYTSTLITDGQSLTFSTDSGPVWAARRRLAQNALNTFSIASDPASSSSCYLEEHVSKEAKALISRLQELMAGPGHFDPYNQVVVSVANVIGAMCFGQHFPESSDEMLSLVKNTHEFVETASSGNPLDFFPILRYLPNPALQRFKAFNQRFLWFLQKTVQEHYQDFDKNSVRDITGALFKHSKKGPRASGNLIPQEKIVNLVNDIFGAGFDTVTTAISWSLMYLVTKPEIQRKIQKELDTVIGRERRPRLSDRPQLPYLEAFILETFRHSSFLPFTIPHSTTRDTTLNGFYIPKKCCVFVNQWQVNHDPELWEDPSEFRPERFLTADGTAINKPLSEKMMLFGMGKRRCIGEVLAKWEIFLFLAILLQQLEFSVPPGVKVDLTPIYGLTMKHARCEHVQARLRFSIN

[5] = in vivo; parameters: species or system SD rats; details: SD, rat, po, 40 mg/kg
Source text: These formulations differ in pH and/or acid used to adjust the pH.

[6] = system: CK KD PC-3 cells; experiment: MTT assay in choline kinase knock down cells (siRNA); type: cell-based; details: Homo sapiens, PC-3, 48 h; read-out: decrease in cell viability
Source text: (Panel D) Choline kinase expression in prostate cancer cell lines (PC-3, DU145 and C42B) and normal prostate cell line (RWPE-1). GAPDH was used as a loading control. (Panel E) Scatter-plot comparing choline kinase expression in normal and cancer tissue from prostate cancer patients (p=0.002). The p value for statistical significance was set up as 0.05, while the fold change was defined as mean of all individual data points of analyzed datasets. (Panel Fi) Micrographs showing immunohistochemical staining of choline kinase enzyme in normal and cancer tissue from prostate cancer patients. (Panel Fii) Quantification (composite score) of choline kinase expression in normal and cancer tissue from prostate cancer patient. Five normal and five cancer tissue cases on TMA were scored for choline kinase staining percentage and intensity and composite scores were calculated using two parameters. As shown in these figures, choline kinase enzyme is highly expressed in cancer tissue as opposed to normal tissue.
A siRNA approach was further employed to confirm the role of CK in Etn-induced cell death.

[7] = system: Ki67; experiment: Immunohistochemical staining of PC-3-luc xenografts; type: in vivo, mice; details: Etn-treated tumors (40 mg/kg)
Procedure: OCR was measured using an oxygen electrode.
While ˜62% cells were Ki67-positive in untreated control tumors, Ki67 positivity was reduced to ˜40% in Etn-treated tumors (FIG. 14, panel Dii).
Tumors were formalin-fixed, paraffin-embedded and 5 μm thick prostate tumor sections were stained for Ki67 and c-PARP, and prostate cancer TMA (US Biomax, Derwood, Mass.) was immunostained for choline kinase. All stained slides were examined by a pathologist in a blinded-manner.

[8] = target: CYP2C8 (Homo sapiens, UniProt P10632); experiment: CYP inhibition in human liver microsomes
Sequence of CYP2C8 (P10632 whole entry): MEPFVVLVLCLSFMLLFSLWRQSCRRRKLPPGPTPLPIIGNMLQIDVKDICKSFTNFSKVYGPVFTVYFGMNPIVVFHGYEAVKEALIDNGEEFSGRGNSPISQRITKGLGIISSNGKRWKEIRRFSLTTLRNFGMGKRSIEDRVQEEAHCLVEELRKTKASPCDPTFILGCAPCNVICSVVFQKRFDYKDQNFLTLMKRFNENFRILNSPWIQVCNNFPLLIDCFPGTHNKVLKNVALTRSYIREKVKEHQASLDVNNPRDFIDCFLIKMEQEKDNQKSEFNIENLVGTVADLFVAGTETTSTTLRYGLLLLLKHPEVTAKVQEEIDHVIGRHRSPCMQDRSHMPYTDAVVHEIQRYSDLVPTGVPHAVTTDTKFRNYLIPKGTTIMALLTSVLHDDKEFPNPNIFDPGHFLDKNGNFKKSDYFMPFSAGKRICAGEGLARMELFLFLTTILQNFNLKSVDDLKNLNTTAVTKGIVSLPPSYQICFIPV

Sequence of CYP2C9 (P11712 whole entry): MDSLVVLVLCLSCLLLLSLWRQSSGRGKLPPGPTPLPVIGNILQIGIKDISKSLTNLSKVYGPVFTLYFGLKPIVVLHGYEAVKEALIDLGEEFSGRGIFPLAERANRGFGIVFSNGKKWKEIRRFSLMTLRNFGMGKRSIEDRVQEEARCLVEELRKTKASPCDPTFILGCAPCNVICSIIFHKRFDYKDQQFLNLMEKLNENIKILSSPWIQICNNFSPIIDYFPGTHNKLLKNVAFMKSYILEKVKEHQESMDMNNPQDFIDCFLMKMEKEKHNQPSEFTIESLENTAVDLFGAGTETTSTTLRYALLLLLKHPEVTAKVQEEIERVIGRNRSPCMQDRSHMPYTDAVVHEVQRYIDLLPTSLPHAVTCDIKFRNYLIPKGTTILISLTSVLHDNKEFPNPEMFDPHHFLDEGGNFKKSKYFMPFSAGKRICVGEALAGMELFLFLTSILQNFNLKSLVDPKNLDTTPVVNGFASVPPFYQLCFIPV

NCCO [Etn, monoethanolamine]
IC50 [1]: > 100 µM
stability in SIF [2]: remained unchanged
decrease in colony numbers compared to control cells [3]: ~97%
IC50 [4]: > 100 µM
Tmax ([5]; female, pH 5): 19.8 min
AUC(0-t) ([5]; female, pH 5, AUClast): 33800 ng·h/mL
Cmax ([5]; female, pH 5, Cmax): 24100 ng/mL
Tmax ([5]; female, pH 7.4): 19.8 min
AUC(0-t) ([5]; female, pH 7.4, AUClast): 29000 ng·h/mL
Cmax ([5]; female, pH 7.4, Cmax): 25000 ng/mL
Tmax ([5]; male, pH 5): 19.8 min
AUC(0-t) ([5]; male, pH 5, AUClast): 29500 ng·h/mL
Cmax ([5]; male, pH 5, Cmax): 27100 ng/mL
Tmax ([5]; male, pH 7.4): 19.8 min
AUC(0-t) ([5]; male, pH 7.4, AUClast): 27300 ng·h/mL
Cmax ([5]; male, pH 7.4, Cmax): 23700 ng/mL
cytotoxicity at 500 µg/mL [6]: ~11%
Ki67 positivity [7]: ~40%
IC50 [8]: > 100 µM

Source: patent publication US11607421B2, “Ethanolamine-based lipid biosynthetic compounds, method of making and use thereof” (Metanoi Therapeutics, Inc., priority 2016, dated 2023)
